Measured values reported in patent publication US6372297B1, “Wood preservative oxathiazines” (Uniroyal Chemical Company, Inc., priority 1993, dated 2002).
Read-outs that look alike come from different tables or passages of the source.

Assays:
Format in all cases: cell-based
Bacillus cereus mycoides = test system: Bacillus cereus mycoides; design: scale not given here
Streptomyces albus = test: Wood preservative efficacy against bacteria and yeasts, tryptose agar plates; design: key: 0 = growth equal to control, 1 = inhibition, 2 = no growth
Summary of the method: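 Compounds in 50% ethanol diluted with sterile water, tested in tryptose agar inoculated with Streptomyces albus. Growth scored once untreated cultures grew: 0 = as control, 1 = inhibited, 2 = no growth.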

Trichoderma viride = test: Wood preservative efficacy against fungi, agar plate colony diameter; conditions: 10 ppm, Table 6B
Experimental: (§1) Each plate was inoculated with a spore suspension or with a small piece of agar (1 mm) from the margin of an actively growing colony of the test fungus. The fungi employed are listed below. After incubation at 22° C. and 70% relative humidity during a period long enough to allow significant growth of untreated controls, the diameters of the fungus colonies were measured and scored using the following rating system: 0=free of fungal growth 1=25% of fungal growth compared to untreated 2=50% of fungal growth compared to untreated 3=75% of fungal growth compared to untreated 4=Growth equal to that of untreated The scores measured for wood preservation efficacy of the compounds of this invention are listed in Tables 6a and 6b. In these Tables, the lower numbers are the most preferred species. Trichoderma viride

Aureobasidium pullulans = test: as above; design: key: 1=25%, 2=50%, 3=75%, 4=100% of untreated growth; lower better; conditions: 10 ppm, Table 6B
Experimental: The compounds shown in Table 1 were dissolved in 50% ethanol and then diluted with sterile water to give the required concentrations of 1 and 10 ppm in the test agar plates. Malt extract sugar (3%) was added aseptically and uniform distribution was obtained by shaking. Each plate was inoculated with a spore suspension or with a small piece of agar (1 mm) from the margin of an actively growing colony of the test fungus. The fungi employed are listed below. After incubation at 22° C. and 70% relative humidity during a period long enough to allow significant growth of untreated controls, the diameters of the fungus colonies were measured and scored using the following rating system:
1=25% of fungal growth compared to untreated
2=50% of fungal growth compared to untreated
3=75% of fungal growth compared to untreated
4=Growth equal to that of untreated
In these Tables, the lower numbers are the most preferred species.

Escherichia coli = test: Wood preservative efficacy against bacteria and yeasts, tryptose agar plates; design: key: 0 = growth equal to control, 1 = growth inhibited, 2 = no growth
Summary of the method: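 Compounds were dissolved in 50% ethanol, diluted with sterile water and tested against inoculated bacterial cultures on agar. Growth was scored against untreated controls: 0 = growth equal to control, 1 = growth inhibited, 2 = no growth.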

Coniophora puteana = test: Wood preservative efficacy against fungi, agar plate colony diameter; design: key: 0 = no fungal growth, 1-3 = 25/50/75% of untreated, 4 = equal; conditions: 10 ppm, Table 6B
Experimental: as §1, with “Coniophora puteana (syn. C. cerebella)” for “Trichoderma viride”

Pseudomonas aeruginosa = test: Wood preservative efficacy against bacteria and yeasts, tryptose agar plates; design: key: 0 = growth equal to control, 1 = growth inhibited, 2 = no growth; conditions: 100 ppm in tryptose agar
Summary of the method: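 Compounds were dissolved in 50% ethanol, diluted with sterile water and tested against Pseudomonas aeruginosa inoculated on tryptose agar. Growth was scored against untreated control once the control had grown: 0 = equal growth, 1 = inhibition, 2 = no growth.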

Aspergillus niger = test: Wood preservative efficacy against fungi, agar plate colony diameter; conditions: 10 ppm, Table 6B
Experimental: as §1, with “Aspergillus niger” for “Trichoderma viride”

Coriolus versicolor = test: as above; conditions: 10 ppm, Table 6B
Experimental: as §1, with “Coriolus versicolor” for “Trichoderma viride”

Aspergillus flavus = test: as above; conditions: 10 ppm, Table 6B
Experimental: as §1, with “Aspergillus flavus” for “Trichoderma viride”

CCOc1ccc(C2=NOCC[S+]2C)cc1 (stereo not shown) [Compound 28]
Score of bactericidal activity, B. cereus mycoides (Bacillus cereus mycoides; 10 ppm in tryptose agar): 1
Score of bactericidal activity, B. cereus mycoides (Bacillus cereus mycoides; 100 ppm in tryptose agar): 2
Score of bactericidal activity, S. albus (Streptomyces albus; 10 ppm in tryptose agar): 1
Score of bactericidal activity, S. albus (Streptomyces albus; 100 ppm in tryptose agar): 2
Score of fungicidal activity, T. VIRIDE (Trichoderma viride): 3 (75% of growth compared to untreated control)
Score of fungicidal activity, A. PULLULANS (Aureobasidium pullulans): 4
Score of bactericidal activity, E. Coli (Escherichia coli; 10 ppm in tryptose agar): 0
Score of bactericidal activity, E. Coli (Escherichia coli; 100 ppm in tryptose agar): 0
Score of fungicidal activity, C. PUTEANA (Coniophora puteana): 0
Score of bactericidal activity, P. aeruginosa (Pseudomonas aeruginosa): 0
Score of fungicidal activity, A. NIGER (Aspergillus niger): 4
Score of fungicidal activity, G. VERSICLOR (Coriolus versicolor): 3 (75% of growth compared to untreated control)
Score of fungicidal activity, A. FLAVUS (Aspergillus flavus): 3 (75% of growth compared to untreated control)
